Values quoted from earlier work in publication PMC8513935.

Legend:
[1] = log P octanol/water from commercial databases, averaged (the ESI); conditions: Octanol (wet), 25 C
[2] = experimental, compiled by the authors from the literature (the ESI cites the sources)
[3] = derived by the authors as gas->solvent minus gas->water (a hypothetical dry solvent; the ESI), not a two-phase measurement

CC(C)CC(C)(C)C
log K of transfer, water to solvent [1]: 4.8 log10 K | log K of transfer, gas to solvent ([2]; 2-Methylpropan-2-ol, 25 C): 2.64 log10 K | log K of transfer, gas to solvent ([2]; Butanone, 25 C): 2.97 log10 K | log K of transfer, gas to solvent ([2]; Decan-1-ol, 25 C): 2.86 log10 K | log K of transfer, gas to solvent ([2]; Hexadecane, 25 C): 3.1 log10 K | log K of transfer, gas to solvent ([2]; Hexan-1-ol, 25 C): 2.98 log10 K | log K of transfer, gas to solvent ([2]; Pentan-1-ol, 25 C): 2.85 log10 K | log K of transfer, gas to solvent ([2]; Propan-1-ol, 25 C): 2.69 log10 K | log K of transfer, gas to solvent ([2]; Propan-2-ol, 25 C): 2.7 log10 K | log K of transfer, gas to solvent ([2]; Tetrahydrofuran, 25 C): 3.41 log10 K | log K of transfer, gas to solvent ([2]; Water, 25 C): -2.12 log10 K | log K of transfer, water to solvent ([3]; 2-Methylpropan-2-ol, 25 C): 4.76 log10 K | log K of transfer, water to solvent ([3]; Butanone, 25 C): 5.09 log10 K | log K of transfer, water to solvent ([3]; Decan-1-ol, 25 C): 4.98 log10 K | log K of transfer, water to solvent ([3]; Hexadecane, 25 C): 5.22 log10 K | log K of transfer, water to solvent ([3]; Hexan-1-ol, 25 C): 5.1 log10 K | log K of transfer, water to solvent ([3]; Pentan-1-ol, 25 C): 4.97 log10 K | log K of transfer, water to solvent ([3]; Propan-1-ol, 25 C): 4.81 log10 K | log K of transfer, water to solvent ([3]; Propan-2-ol, 25 C): 4.82 log10 K | log K of transfer, water to solvent ([3]; Tetrahydrofuran, 25 C): 5.53 log10 K

O=C1CCCCC1
log K of transfer, water to solvent [1]: 0.81 log10 K | log K of transfer, gas to solvent ([2]; 1,2-Dichloroethane, 25 C): 4.97 log10 K | log K of transfer, gas to solvent ([2]; CCl4, 25 C): 4.57 log10 K | log K of transfer, gas to solvent ([2]; Cyclohexanone, 25 C): 4.65 log10 K | log K of transfer, gas to solvent ([2]; Hexadecane, 25 C): 3.79 log10 K | log K of transfer, gas to solvent ([2]; Hexane, 25 C): 3.65 log10 K | log K of transfer, gas to solvent ([2]; Water, 25 C): 3.6 log10 K | log K of transfer, water to solvent ([3]; 1,2-Dichloroethane, 25 C): 1.37 log10 K | log K of transfer, water to solvent ([3]; CCl4, 25 C): 0.97 log10 K | log K of transfer, water to solvent ([3]; Cyclohexanone, 25 C): 1.05 log10 K | log K of transfer, water to solvent ([3]; Hexadecane, 25 C): 0.192 log10 K | log K of transfer, water to solvent ([3]; Hexane, 25 C): 0.05 log10 K

Cc1ccc(C)cc1
log K of transfer, water to solvent [1]: 3.15 log10 K | log K of transfer, gas to solvent ([2]; 1,2-Dichloroethane, 25 C): 4.37 log10 K | log K of transfer, gas to solvent ([2]; 2-Methylpropan-1-ol, 25 C): 3.62 log10 K | log K of transfer, gas to solvent ([2]; CCl4, 25 C): 4.2 log10 K | log K of transfer, gas to solvent ([2]; Cyclohexane, 25 C): 3.86 log10 K | log K of transfer, gas to solvent ([2]; Ethanol, 25 C): 3.73 log10 K | log K of transfer, gas to solvent ([2]; Hexadecane, 25 C): 3.84 log10 K | log K of transfer, gas to solvent ([2]; Octan-1-ol, 25 C): 3.79 log10 K | log K of transfer, gas to solvent ([2]; Water, 25 C): 0.59 log10 K | log K of transfer, water to solvent ([3]; 1,2-Dichloroethane, 25 C): 3.78 log10 K | log K of transfer, water to solvent ([3]; 2-Methylpropan-1-ol, 25 C): 3.03 log10 K | log K of transfer, water to solvent ([3]; CCl4, 25 C): 3.61 log10 K | log K of transfer, water to solvent ([3]; Cyclohexane, 25 C): 3.27 log10 K | log K of transfer, water to solvent ([3]; Ethanol, 25 C): 3.14 log10 K | log K of transfer, water to solvent ([3]; Hexadecane, 25 C): 3.25 log10 K | log K of transfer, water to solvent ([3]; Octan-1-ol(dry), 25 C): 3.2 log10 K

CCC(C)C
log K of transfer, water to solvent [1]: 3.19 log10 K | log K of transfer, gas to solvent ([2]; 2-Methylpropan-2-ol, 25 C): 1.88 log10 K | log K of transfer, gas to solvent ([2]; Cyclohexanone, 25 C): 1.89 log10 K | log K of transfer, gas to solvent ([2]; Hexadecane, 25 C): 2.01 log10 K | log K of transfer, gas to solvent ([2]; Water, 25 C): -1.75 log10 K | log K of transfer, water to solvent ([3]; 2-Methylpropan-2-ol, 25 C): 3.63 log10 K | log K of transfer, water to solvent ([3]; Cyclohexanone, 25 C): 3.64 log10 K | log K of transfer, water to solvent ([3]; Hexadecane, 25 C): 3.76 log10 K

CCCCCCCCC
log K of transfer, water to solvent [1]: 5.65 log10 K | log K of transfer, gas to solvent ([2]; 1,2-Dichloroethane, 25 C): 3.89 log10 K | log K of transfer, gas to solvent ([2]; Acetonitrile, 25 C): 3 log10 K | log K of transfer, gas to solvent ([2]; Butanone, 25 C): 3.9 log10 K | log K of transfer, gas to solvent ([2]; Butyronitrile, 25 C): 3.63 log10 K | log K of transfer, gas to solvent ([2]; CCl4, 25 C): 4.55 log10 K | log K of transfer, gas to solvent ([2]; Chlorobenzene, 25 C): 4.52 log10 K | log K of transfer, gas to solvent ([2]; Chloroform, 25 C): 4.42 log10 K | log K of transfer, gas to solvent ([2]; Cyclohexanone, 25 C): 3.84 log10 K | log K of transfer, gas to solvent ([2]; Dichloromethane, 25 C): 4.21 log10 K | log K of transfer, gas to solvent ([2]; Ethanol, 25 C): 3.52 log10 K | log K of transfer, gas to solvent ([2]; Hexadecane, 25 C): 4.18 log10 K | log K of transfer, gas to solvent ([2]; Hexane, 25 C): 4.51 log10 K | log K of transfer, gas to solvent ([2]; Methanol, 25 C): 3.23 log10 K | log K of transfer, gas to solvent ([2]; Perfluoroalkane, 25 C): 2.87 log10 K | log K of transfer, gas to solvent ([2]; Propan-1-ol, 25 C): 3.55 log10 K | log K of transfer, gas to solvent ([2]; Propan-2-ol, 25 C): 3.63 log10 K | log K of transfer, gas to solvent ([2]; Propanone, 25 C): 3.66 log10 K | log K of transfer, gas to solvent ([2]; Propionitrile, 25 C): 3.42 log10 K | log K of transfer, gas to solvent ([2]; Tetrahydrofuran, 25 C): 4.34 log10 K | log K of transfer, gas to solvent ([2]; Toluene, 25 C): 4.34 log10 K | log K of transfer, gas to solvent ([2]; Water, 25 C): -2.15 log10 K | log K of transfer, water to solvent ([3]; 1,2-Dichloroethane, 25 C): 6.04 log10 K | log K of transfer, water to solvent ([3]; Acetone, 25 C): 5.81 log10 K | log K of transfer, water to solvent ([3]; Acetonitrile, 25 C): 5.15 log10 K | log K of transfer, water to solvent ([3]; Butanone, 25 C): 6.05 log10 K | log K of transfer, water to solvent ([3]; Butyronitrile, 25 C): 5.78 log10 K | log K of transfer, water to solvent ([3]; CCl4, 25 C): 6.7 log10 K | log K of transfer, water to solvent ([3]; Chlorobenzene, 25 C): 6.67 log10 K | log K of transfer, water to solvent ([3]; Chloroform, 25 C): 6.57 log10 K | log K of transfer, water to solvent ([3]; Cyclohexanone, 25 C): 5.99 log10 K | log K of transfer, water to solvent ([3]; Dichloromethane, 25 C): 6.36 log10 K | log K of transfer, water to solvent ([3]; Ethanol, 25 C): 5.67 log10 K | log K of transfer, water to solvent ([3]; Hexadecane, 25 C): 6.33 log10 K | log K of transfer, water to solvent ([3]; Hexane, 25 C): 6.66 log10 K | log K of transfer, water to solvent ([3]; Methanol, 25 C): 5.38 log10 K | log K of transfer, water to solvent ([3]; Perfluoroalkane, 25 C): 5.02 log10 K | log K of transfer, water to solvent ([3]; Propan-1-ol, 25 C): 5.7 log10 K | log K of transfer, water to solvent ([3]; Propan-2-ol, 25 C): 5.78 log10 K | log K of transfer, water to solvent ([3]; Propionitrile, 25 C): 5.57 log10 K | log K of transfer, water to solvent ([3]; Tetrahydrofuran, 25 C): 6.49 log10 K | log K of transfer, water to solvent ([3]; Toluene, 25 C): 6.49 log10 K
